The source of these data is patent publication US20250236614A1, “BICYCLIC TETRAHYDROAZEPINE DERIVATIVES” (Hoffmann-La Roche Inc., priority 2022, published 2025).

The subject of assay [1] is primary human T-cells. In words: IL2 secretion measurements in CD3-stimulated T-cells. Format: cell-based. Conditions: isomer A; for pEC50: CD3 antibody-stimulated T-cells, IL2 in supernatant after 24 hours, read-out: Tcell IL2 CD3 EC50; for Emax: read-out: Emax IL2 (% activation). Here is the method: As readouts for T-cell activation, IL2 secretion after 24 hours and proliferation after 5 days was measured. Increases in IL2 secretion and proliferation upon compound treatment were assessed as the % of the maximum of reference compound A1. WO 2016/139181 discloses reference compound A1 as example 70. As a counter screen and to make sure that no unwanted TCR-independent activation was triggered, PBS conditions were run for all compounds.
Expanded primary human T-cells were thawed and cultured in RPMI 1640 (Gibco, #61870-010)+5% human serum (HS, Sigma, #H3667)+1 mM Sodium Pyruvate (Gibco, #11360-039)+50 μM 2-mercaptoethanol (Gibco, #31350-010) and lx Pen-Strep (Life Technologies, #15140122) medium at density of 2 Mio/ml for 3 hours in 5% CO2, 37° C. and 95% humidity. For coating of plates, […] or PBS++ with CD3 antibody (concentration depending on donor and determined by CD3 titrations) was added 100 μl/well to Poly-D Lysine coated 96-well plates. Plates were sealed and incubated at room temperature for 3 hours on a table-top rocking platform. After incubation, plates were washed once with PBS−− and filled with 40 μl/well culture medium only. Compounds were then added (see next section) to medium only plates. After 3 hours of culturing the T-cells, cells were filtered through a cell strainer (Miltenyi Biotech, #130-041-407), counted again and concentration was adjusted to 1.25 Mio/ml.
Cells were then seeded 80 μl/well to the 40 μl/well including dispensed compounds according to plate layout. By adding cells, compounds were further diluted 1:3, and resulting in 100k cells/120 μl/well. After 24 hours 40 μl of supernatant was collected carefully from the top while not disturbing the cells and transferred into a round bottom 96 well plate. Collected and frozen supernatant was used for detection of IL2 using the IL-2 Human ProQuantum Immunoassay Kit (Invitrogen) or using the Human IL-2 ELISA Kit (Thermo Fisher).
Compounds were added in a 5 or 6 pt dose response with the Tecan D300e Digital Dispenser, all conditions 3 times more concentrated than the end-concentration, since cells are added afterwards (80 μl cells to 40 μl prepared medium with treatment). The DR was starting at 20 μM or 10 μM final top concentration and a dilution factor of 3.333. The positive control was the reference compound A1 that was added in a dose response as well, additionally to 3 wells of only 20 μM representing the positive stimulator control. All wells were normalized with DMSO to a final concentration of 0.6% (0.2% end-concentration).
The immunoassay is done following the manufacturer's manual (Invitrogen, #A35603).
Additional information: For the immunoassay, MicroAmp™ EnduraPlate™ Optical 384-Well plates are used. Frozen supernatant is thawed and centrifuged for 5 minutes at 1000×g, both steps at 4° C. After centrifugation, required sample amount is taken from the top, and in a separate LightCycler V-bottom plate (working plate) diluted with assay dilution buffer, dilution factor depending on the PBS or CD3 condition but at least 1:3. IL-2 standard and blanks are prepared in the same V-bottom plate, standard with a range of […] (extended version). After preparation, […] of sample dilutions or standard/blanks are transferred to the optical 384-well plate (assay plate) and the 10 μl reaction protocol is being followed. For measurement, the QuantStudio 12K Flex system is used. Raw data is extracted and IL-2 concentrations are calculated with the Thermo Fisher online app (apps.thermofisher.com/apps/proquantum).
ELISA is done following the manufacturer's manual (Thermo Fisher Scientific, #88-7025-88).
Additional information: For the ELISA Nunc MaxiSorp 96 well plates are used. Frozen supernatant is thawed and centrifuged for 5 minutes at 1000×g, both steps at 4° C. After that, required sample amount is taken from the top, and in a separate V-bottom plate diluted with ELISA diluent, dilution factor depending on the PBS or CD3 condition. […]

For assay [2], the target named is T1, hDGKalpha(1-735)-N-His (DGKA) (Homo sapiens, UniProt P23743).
T1 construct: hDGKalpha(1-735)-N-His; His (N)
In words: In vitro DGK inhibition assay (ADP-Glo, in house), DGK alpha. Format: biochemical. Conditions: isomer A; 4 nM DGK α, 25 μM ATP, 125 μM DLG in liposomes, 1 hour reaction; read-out: DGKalpha ADP Glo assay IC50. Here is the method: DGK α and ζ kinase use ATP to phosphorylate the substrate 1,2-dilauroyl-sn-glycerol (DLG, incorporated in the liposomes). ATP is converted to ADP as a result of this enzymatic reaction.
After the kinase reaction, an ATP-depletion reagent is added to terminate the kinase reaction and deplete any remaining ATP, leaving only ADP. Second, a detection reagent is added to simultaneously convert ADP to ATP and allow the newly synthesized ATP to be converted to light using a coupled luciferase/luciferin reaction.
Full length DGKA and Z were expressed in Sf21 insect cells by infecting the cells with the baculovirus stock at MOI of 2. Purification of both enzymes was performed as previously described by Takahashi et al., PeerJ, 2018 (Takahashi, D.; Sakane, F. Expression and purification of human diacylglycerolkinase alpha from baculovirus-infected insect cells for structural studies. PeerJ2018, 6, No. e5449).
A concentrated liposome solution was prepared in assay buffer without DTT and BSA: 2 mM of DLG in 21 mM of total liposome (2 mM DLG/8 mM PS/11 mM PC). The reaction mixtures contain the assay buffer with a final DLG concentration of 125 μM ATP concentrations of 25 μM (for DGKA assay) or 50 μM (for DGKZ assay). The reactions were started by addition of DGK α and ζ kinases at 4 nM and 2 nM final concentrations, respectively. After 1 hour reaction, the amount of ADP formed was detected with the ADP-Glo kinase assay (Promega) according to the manufacturer instructions. Compounds were added in 11I-points dose response, starting at 10 mM, 1:3 dilutions, with a final DMSO concentration of […]. The multidrop combi was used as a liquid handler and luminescence was read with 0.5 s by the envision reader (PE).

Where [3] appears, read: Homo sapiens, T-cell, CD3 condition, 24 hours, 20 μM reference compound A1 = 100%, DMSO neutral control.

The pEC50 is −log10 of the EC50, conventionally taken in molar units. Usually pIC50 stands for −log10 of the IC50, conventionally taken in molar units. What is called Emax is the size of the effect at its maximum, as opposed to the concentration needed.

pEC50, pIC50: −log10 of the molar value. Where two headings read alike, the source gives them in different places.

T1 sequence (P23743 whole entry): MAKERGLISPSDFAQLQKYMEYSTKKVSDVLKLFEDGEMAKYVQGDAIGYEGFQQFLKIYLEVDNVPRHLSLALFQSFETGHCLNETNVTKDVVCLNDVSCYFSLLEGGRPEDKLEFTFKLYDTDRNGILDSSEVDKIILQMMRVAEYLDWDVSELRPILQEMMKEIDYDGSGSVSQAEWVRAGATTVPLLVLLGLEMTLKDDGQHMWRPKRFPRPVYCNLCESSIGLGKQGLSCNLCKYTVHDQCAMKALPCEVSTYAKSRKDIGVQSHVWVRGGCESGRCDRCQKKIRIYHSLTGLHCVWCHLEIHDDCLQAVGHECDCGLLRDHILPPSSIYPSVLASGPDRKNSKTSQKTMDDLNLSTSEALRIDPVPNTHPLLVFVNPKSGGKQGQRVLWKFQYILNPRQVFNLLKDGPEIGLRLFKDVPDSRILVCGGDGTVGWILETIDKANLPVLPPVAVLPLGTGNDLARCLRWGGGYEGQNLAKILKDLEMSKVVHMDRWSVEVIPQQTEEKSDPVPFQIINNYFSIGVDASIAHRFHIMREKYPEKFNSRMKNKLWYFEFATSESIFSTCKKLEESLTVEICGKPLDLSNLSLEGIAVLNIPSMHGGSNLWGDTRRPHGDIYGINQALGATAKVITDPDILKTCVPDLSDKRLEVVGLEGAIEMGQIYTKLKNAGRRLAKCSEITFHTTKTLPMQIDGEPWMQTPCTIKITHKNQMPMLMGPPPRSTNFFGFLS

Regarding “2-methyl-2-[5-[(3S)-3-amino-5,5,7-trifluoro-2-oxo-1-[[4-(trifluoromethoxy)phenyl]methyl]-3,4-dihydro-1-benzazepin-8-yl]-1,3,4-oxadiazol-2-yl]propanenitrile and 2-methyl-2-[5-[(3R)-3-amino-5,5,7-trifluoro-2-oxo-1-[[4-(trifluoromethoxy)phenyl]methyl]-3,4-dihydro-1-benzazepin-8-yl]-1,3,4-oxadiazol-2-yl]propanenitrile [Example 2]”, the pEC50 in assay [1] was 6.08. Further, the “Emax IL2 (% activation)” value in assay [1] (CD3 condition, 24 hours, 20 μM reference compound A1 = 100%, DMSO neutral control) turned out to be 256 % activation. Besides, the pIC50 in assay [2] is 5.85.

In the case of `CC(C)(c1nnc(-c2cc3c(cc2F)C(F)(F)CC(N)C(=O)N3Cc2ccc(Oc3ccccc3)cc2)o1)S(C)(=O)=O` (racemic) [Example 5, (3S)-3-amino-5,5,7-trifluoro-8-[5-(1-methyl-1-methylsulfonyl-ethyl)-1,3,4-oxadiazol-2-yl]-1-[(4-phenoxyphenyl)methyl]-3,4-dihydro-1-benzazepin-2-one and (3R)-3-amino-5,5,7-trifluoro-8-[5-(1-methyl-1-methylsulfonyl-ethyl)-1,3,4-oxadiazol-2-yl]-1-[(4-phenoxyphenyl)methyl]-3,4-dihydro-1-benzazepin-2-one], the pEC50 in assay [1] (Homo sapiens, T-cell) was 5.63. Also, the Emax in assay [1] (setting [3]) stood at 165%. The pIC50 in assay [2] was 4.77.

For `CC(C)(C#N)c1nnc(-c2cc3c(cc2F)C(F)(F)CC(N)C(=O)N3Cc2ccc(-n3cc(C(F)(F)F)cn3)cc2)o1` (racemic) [Example 33, 2-[5-[(3S)-3-amino-5,5,7-trifluoro-2-oxo-1-[[4-[4-(trifluoromethyl)pyrazol-1-yl]phenyl]methyl]-3,4-dihydro-1-benzazepin-8-yl]-1,3,4-oxadiazol-2-yl]-2-methyl-propanenitrile and 2-[5-[(3R)-3-amino-5,5,7-trifluoro-2-oxo-1-[[4-[4-(trifluoromethyl)pyrazol-1-yl]phenyl]methyl]-3,4-dihydro-1-benzazepin-8-yl]-1,3,4-oxadiazol-2-yl]-2-methyl-propanenitrile], the negative logarithm of the EC50 (pEC50) in assay [1] (Homo sapiens, T-cell) is 6.62. The Emax in assay [1] (setting [3]) was determined as 62%. Further, the negative-log IC50 (pIC50) in assay [2] is 5.63.

For `COC(F)(c1nnc(-c2cc3c(cc2F)C(F)(F)C[C@H](N)C(=O)N3Cc2ccc(OC(F)(F)F)cc2)o1)C(F)(F)F` (single isomer, unassigned) [Example 4], the pEC50 in assay [1] (Homo sapiens, T-cell) was 6.09. Besides, the Emax in assay [1] (setting [3]) stood at 91%. In addition, the pIC50 in assay [2] was 5.36.

For `CC(C)(C)c1nnc(-c2cc3c(cc2F)C(F)(F)C[C@@H](N)C(=O)N3Cc2ccc(OC3CCCC3)cc2)o1` (single isomer, unassigned) [Example 7], in assay [1] (Homo sapiens, T-cell), the pEC50 was 6.55. The Emax in assay [1] (setting [3]) was 94%. Further, in assay [2], the pIC50 is 5.02.

As for `CC(C)(c1nnc(-c2cc3c(cc2F)C(F)(F)C[C@@H](N)C(=O)N3Cc2ccc(-c3ccc(C(F)(F)F)cn3)cc2)o1)S(C)(=O)=O` (single isomer, unassigned) [Example 8], the pEC50 in assay [1] (Homo sapiens, T-cell) is 6.43. Also, in assay [1] (setting [3]), the Emax is 69%. In addition, the pIC50 in assay [2] is 5.26.

On to `COc1ccc(-c2ccc(CN3C(=O)[C@H](N)CC(F)(F)c4cc(F)c(-c5nnc(C(C)(C)C#N)o5)cc43)cc2)cc1` (single isomer, unassigned) [Example 9], for which, in assay [1] (Homo sapiens, T-cell), the pEC50 is 6.43. Moreover, the Emax in assay [1] (setting [3]) came to 133%. Also, the pIC50 in assay [2] is 5.00.

As to `COc1ccc(-c2ccc(CN3C(=O)[C@H](N)CC(F)(F)c4cc(F)c(-c5nnc(C(C)(C)S(C)(=O)=O)o5)cc43)cc2)cc1` (single isomer, unassigned) [Example 10], in assay [1] (Homo sapiens, T-cell), the pEC50 is 6.42. The Emax in assay [1] (setting [3]) is 57%. Further, the pIC50 in assay [2] was 4.79.

Turning to `CC(C)(C#N)c1nnc(-c2cc3c(cc2F)C(F)(F)C[C@@H](N)C(=O)N3Cc2ccc(-c3ccc(C(F)(F)F)cn3)cc2)o1` (single isomer, unassigned) [Example 12], the pEC50 in assay [1] (Homo sapiens, T-cell) is 6.44. The Emax in assay [1] (setting [3]) worked out at 67%. Moreover, the negative logarithm of the IC50 (pIC50) in assay [2] was 4.61.

Take `CCN1CC(c2nnc(-c3cc4c(cc3F)C(F)(F)C[C@@H](N)C(=O)N4Cc3ccc(OC(F)(F)F)cc3)o2)CC(F)(F)C1` (single isomer, unassigned) [Example 13]: in assay [1] (Homo sapiens, T-cell), the pEC50 was less than 5.00. In assay [1] (setting [3]), the maximal effect (Emax) stood at 58%. Besides, the pIC50 in assay [2] was 5.03.

Consider `N[C@@H]1CC(F)(F)c2cc(F)c(-c3nnc(N4CCCC4)o3)cc2N(Cc2ccc(-c3noc(C(F)(F)F)n3)cc2)C1=O` (single isomer, unassigned) [Example 14], for which, in assay [1] (Homo sapiens, T-cell), the pEC50 was 6.01. Moreover, the Emax in assay [1] (setting [3]) worked out at 239%. The pIC50 in assay [2] was less than 4.20.

On to `N[C@@H]1CC(F)(F)c2cc(F)c(-c3nnc(N4CCC(F)(F)CC4)o3)cc2N(Cc2ccc(-c3noc(C(F)(F)F)n3)cc2)C1=O` (single isomer, unassigned) [Example 15], for which the pEC50 in assay [1] (Homo sapiens, T-cell) is 5.89. Moreover, the Emax in assay [1] (setting [3]) stood at 152%. For the same compound, in assay [2], the pIC50 was 4.40.

As for `CC(C)(c1nnc(-c2cc3c(cc2F)C(F)(F)C[C@@H](N)C(=O)N3Cc2ccc(-c3noc(C(F)(F)F)n3)cc2)o1)S(C)(=O)=O` (single isomer, unassigned) [Example 16], the pEC50 in assay [1] (Homo sapiens, T-cell) was 5.84. Besides, the maximal response (Emax) in assay [1] (setting [3]) was 183%. Besides, the pIC50 in assay [2] is 4.88.

As for `N[C@@H]1CC(F)(F)c2cc(F)c(-c3nnc(N4CCOC5(CC5)C4)o3)cc2N(Cc2ccc(-c3noc(C(F)(F)F)n3)cc2)C1=O` (single isomer, unassigned) [Example 17], the negative logarithm of the EC50 (pEC50) in assay [1] (Homo sapiens, T-cell) is 5.42. In addition, in assay [1] (setting [3]), the Emax was determined as 107%. The pIC50 in assay [2] is less than 4.20.

Take `CC(C)(C#N)c1nnc(-c2cc3c(cc2F)C(F)(F)C[C@@H](N)C(=O)N3Cc2ccc(-c3ncc(C(F)(F)F)cc3F)cc2)o1` (single isomer, unassigned) [Example 19]: in assay [1] (Homo sapiens, T-cell), the pEC50 is less than 5.56. Moreover, the Emax in assay [1] (setting [3]) was 63%. In addition, the pIC50 in assay [2] is 4.38.
